Laboratory results from patent publication US20120277171A1, “Warmi®, natural alternative for the treatment of menopause” (priority 2011, published 2012).

Assays:
C-reactive protein = test: Clinical trial: C-reactive protein (ELISA); assay type: in vivo, human; conditions: after 6 months of treatment
Experimental: C-reactive protein from human plasma (Diagnostic Automation Inc., USA) was tested with a very sensitive ELISA using a monoclonal antibody against a different antigenic determinant on the C-Reactive Protein molecule, with a sensitivity of […]. C-reactive protein (CRP) was measured prior to treatment and after 6 months of treatment, according to the manufacturer's instructions.
(§1) The levels of cytokines, osteocalcin, growth hormone and C-reactive protein were measured in the Laboratory of the Molecular Biotechnology Unit of the Research and Development Laboratories of the Universidad Peruana Cayetano Heredia (UPCH). All laboratory procedures were conducted in duplicate, standards were used to ensure the reproducibility and quality of the results.

[1] = human, in vivo
Experimental: (§2) Prospective, longitudinal, double blind, three stage, comparative clinical and laboratory evaluation trials on symptomatic postmenopausal women who attended the menopause medical units of the Hospital Nacional Cayetano Heredia, Hospital Nacional Arzobispo Loayza, Hospital Docente Madre Niño San Bartolomé and the medical unit of the Universidad Nacional Agraria La Molina.
(§3) Warmi® capsules (510 mg) were manufactured by Laboratorios Hersil S.A. Capsules were manufactured following Good Manufacturing Practices (GMP) and following the Hazard Analysis and Critical Control Points (HACCP). Warmi® is a natural proprietary blend composed of β-sitosterol, glucosinolates and citrus flavonoids (hesperidin). […] Patients received 3 capsules a day to be taken every 6 hours.
Tibolone was used as HRT. Tibolone was masked in a capsule with the same appearance as the previous groups. Patients received 3 capsules a day to be taken every 6 hours. […]
The statistical analysis was done using a SPSS statistical package (version 11.0). The results were expressed as a mean±standard error (SE), and a p<0.05 was considered significant. The variables were analyzed as a change in relation to the basal level and compared by treatment groups.
There was a small decrease in the hematocrit (1.43%) of the placebo group. […] Upon observing the other quantifiable parameters, no significant changes are noticed.

[2] = Clinical trial: anthropometric parameters and vital signs; assay type: in vivo, human; conditions: mean ± SD
Experimental: as §2, §3
Tibolone was used as HRT. Tibolone was masked in a capsule with the same appearance as the previous groups. Patients received 3 capsules a day to be taken every 6 hours. Tibolone is the latest treatment for menopausal symptoms in Peru. Tibolone is a synthetic steroid with estrogenic, progestogenic and androgenic activity, used for the treatment of menopausal symptoms and post-menopausal osteoporosis. It has been observed that Tibolone reduces the level of triglycerides, HDL, total cholesterol and with no effect on the LDL.
The sample group was integrated by symptomatic postmenopausal women who attend the menopause centers of the participating hospitals. 135 participants were accepted in the study and each hospital recruited the patients that were randomly assigned to the three treatment groups: Warmi®, Tibolone and placebo.
The statistical analysis was done using a SPSS statistical package (version 11.0). […] The variables were analyzed as a change in relation to the basal level and compared by treatment groups.

human osteocalcin = test: Clinical trial: plasma osteocalcin (EASIA); assay type: in vivo; conditions: after 6 months of treatment; FIG. 13
Experimental: Plasma osteocalcin was measured through the EASIA technique (Enzyme Amplified Sensitivity Immunoassay) using monoclonal antibodies against different epitopes of human osteocalcin (Biosource International, Inc., USA), with a sensitivity of 0.4 ng/mL. Human osteocalcin was measured at the beginning of the treatment and after 6 months of treatment, according to the manufacturer's instructions.
as §1

[3] = test system: symptomatic postmenopausal women; test: Greene Climateric Scale; assay type: in vivo, human; conditions: FIGS. 31-35
Description: The changes are observed in sub-categories of Anxiety, Depression, Vasomotor Symptoms and Sexual Aspects.

[4] = test system: TNF-α, INF-y and IL-6 cytokines; test: Clinical trial: cytokine count; assay type: in vivo, human
Experimental: Peripheral blood samples were obtained in vacutainer test tubes with anticoagulant (Becton Dickenson, BD). The biological sample was previously centrifuged and stored at a −70° C. for the respective cytokine count. Type Th1: TNF-α, INF-y and Th2: IL-6 cytokines were counted. The manufacturer's instructions were followed and the cytokine concentrations were calculated according to the specifications (Pharmingen, BD). Cytokines were measured prior to and upon conclusion of the treatment.
as §1

[5] = test system: triglycerides (TG), total cholesterol (TC), HDL, LDL and serum glucose levels; test: Clinical trial: lipids and glucose count; assay type: in vivo, human
Experimental: The triglycerides (TG), total cholesterol (TC), HDL, LDL and serum glucose levels (Valtek S.A.) were measured based on a peripheral blood test prior to the start of the treatment, at months 1, 3 and 6 following treatment. TG, TC and HDL levels were measured with a MicroLab semiautomatic analyzer, through an enzymatic colorimetric technique, using the manufacturer's manual and procedures. Normal values shall be TC<200 mg/dL, HDL>35 mg/dL, LDL<130 mg/dL and TG<170 mg/dL.

[6] = test system: FSH, LH, estradiol, progesterone and DHEAS; test: Clinical trial: hormone count in serum (immunochemical luminescence); assay type: in vivo, human; conditions: for reduction of FSH: FIG. 2
Experimental: Laboratory tests were requested prior to the beginning of the treatments (basal levels) and after 3 and 6 months. The levels of the following hormones were measured in the Laboratory of the Molecular Biotechnology Unit of the Research and Development Laboratories of the Universidad Peruana Cayetano Heredia: FSH, LH, estradiol, progesterone and DHEAS. The following normal menopausal values shall be considered: FSH of between 25.0 and 134.8 mlU/mL, LH of between 7.7 and 58.5 mlU/mL, estradiol between <10.0 and 39.5 pg/mL and progesterone between 0.20 and 1.00 ng/mL.
In order to determine the hormonal levels, a peripheral blood test was taken from each patient on an empty stomach and the serum FSH, LH, estradiol, progesterone and DHEAS levels were taken using the immunochemical luminescence method, following the standardized procedures of the laboratory.

**Q.** With `C#C[C@]1(O)CC[C@H]2[C@@H]3[C@H](C)CC4=C(CCC(=O)C4)[C@H]3CC[C@@]21C` [Tibolone] as the compound, how does the “increase of CRP (change in percentage)” value (C-reactive protein) read?
**A.** 26.83%

**Q.** And the “increase in the hematocrit” value [1]?
**A.** 3.53%

**Q.** What about the “Diastolic BP” value ([2]; 3rd Month) of the same compound?
**A.** 72.5 ± 10.83

**Q.** What about the “Heart Rate” value ([2]; 3rd Month) of the same compound?
**A.** 63.66 ± 1.96

**Q.** And the “Pulse Pressure” value ([2]; 3rd Month)?
**A.** 64 ± 1.78

**Q.** What about the “Respiratory Rate” value ([2]; 3rd Month) of the same compound?
**A.** 16.33 ± 0.98

**Q.** And the “Systolic BP” value ([2]; 3rd Month)?
**A.** 113.33 ± 8.16

**Q.** And the “Diastolic BP” value ([2]; 6th Month)?
**A.** 73.16 ± 11.4

**Q.** And the “Heart Rate” value ([2]; 6th Month)?
**A.** 62.67 ± 2.42

**Q.** What about the “Pulse Pressure” value ([2]; 6th Month) of the same compound?
**A.** 62.67 ± 2.42

**Q.** And the “Systolic BP” value ([2]; 6th Month)?
**A.** 110 ± 8.98

**Q.** What about the “Respiratory Rate” value ([2]; 6th Month, *p ≦ 0.05) of the same compound?
**A.** 16.16 ± 0.41

**Q.** And the “effect on osteocalcin levels (in words)” value (human osteocalcin)?
**A.** significant reduction

**Q.** And the “Greene survey: sub-categories Anxiety, Depression, Vasomotor Symptoms and Sexual Aspects (in words)” value [3]?
**A.** Changes were also observed

**Q.** And the “effect on interferon gamma (INF-y) (in words)” value ([4]; FIG. 16, none were significant)?
**A.** slight increases

**Q.** What about the “effect on Interleukin 6 (IL-6) levels (in words)” value ([4]; FIG. 17, Tibolone: after 3 months alone, Warmi: after both treatment periods) of the same compound?
**A.** significantly reduced

**Q.** What about the “effect on triglycerides levels (in words)” value ([5]; FIG. 8) of the same compound?
**A.** significant decrease

**Q.** What about the “effect on HDL levels (in words)” value ([5]; FIG. 9, Tibolone: after 1, 3 and 6 months of treatment) of the same compound?
**A.** significant reduction

**Q.** And the “effect on LDL levels (in words)” value ([5]; FIG. 10)?
**A.** significant reduction

**Q.** What about the “effect on LDL/HDL ratio (in words)” value ([5]; FIG. 12, Tibolone: after six months, Warmi: after both 3 and 6 months) of the same compound?
**A.** reduction

**Q.** And the “reduction of total cholesterol” value ([5]; after six months of treatment, FIG. 7)?
**A.** 12.37%

**Q.** What about the “reduction in the level of glycemia” value ([5]; at the end of the study, FIG. 6) of the same compound?
**A.** 7.39%

**Q.** What about the “reduction of FSH” value ([6]; month six of treatment) of the same compound?
**A.** 16.20%

**Q.** And the “reduction of FSH” value ([6]; month three of treatment)?
**A.** 29.58%

**Q.** And the “drop of DHEAS in serum” value ([6]; month three, FIG. 3)?
**A.** 12.87%

**Q.** What about the decrease of progesterone ([6]; month three, FIG. 4) of the same compound?
**A.** 29.70%
